Test results as given in patent publication US20250302831A1, “THERAPY FOR ALCOHOL-RELATED LIVER DISEASE” (THE REGENTS OF THE UNIVERSITY OF CALIFORNIA, priority 2021, published 2025).

Tests used:
hM4 = molecular target: T1, hM4 (Homo sapiens, UniProt P08173); conditions: read-out: hM4 (PAM) EC50; cited from earlier work
T1 sequence (P08173 1-479): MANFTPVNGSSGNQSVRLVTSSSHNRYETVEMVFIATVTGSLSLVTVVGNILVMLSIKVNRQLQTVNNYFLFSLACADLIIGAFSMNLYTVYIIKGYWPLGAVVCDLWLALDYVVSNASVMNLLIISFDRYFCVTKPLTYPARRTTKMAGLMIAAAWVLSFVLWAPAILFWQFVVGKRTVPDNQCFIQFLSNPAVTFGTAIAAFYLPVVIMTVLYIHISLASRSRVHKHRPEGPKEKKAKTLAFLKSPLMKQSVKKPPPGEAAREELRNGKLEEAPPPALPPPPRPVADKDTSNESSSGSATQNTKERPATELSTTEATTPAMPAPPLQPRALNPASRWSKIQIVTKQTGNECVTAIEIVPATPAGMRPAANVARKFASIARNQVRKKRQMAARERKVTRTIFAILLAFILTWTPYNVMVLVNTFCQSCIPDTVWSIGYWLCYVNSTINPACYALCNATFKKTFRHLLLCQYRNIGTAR

[1] = Bubser 2014; Pancani 2015; Gould 2018; cited from earlier work
[2] = tested on: WT C57BL/6 mice fed ethanol containing Lieber DeCarli diet; assay: mAChR4 PAM VU0467154 in chronic ethanol feeding (Lieber DeCarli diet) of WT mice; format: in vivo, mouse
Text: Female mice (age, 8 weeks) were placed on Lieber DeCarli diet for 10 weeks as previously described (Llorente et al., 2017). In brief, the Lieber DeCarli diet comprises Micro Stabilized Rod Liq AC IRR 438 (LD101A; TestDiet), Maltodextrin IRR (9598; TestDiet) and 200-proof ethanol (Koptec). The caloric intake from ethanol was 0 on day 1, 10% of total calories on days 2 and 3, 20% on days 4 and 5, 30% from day 6 until the end of 6 weeks, and 36% until the end of the treatment. Control mice received an isocaloric amount of iso-maltose instead of ethanol.
To enhance GAP formation, WT C57BL/6 mice fed Lieber DeCarli diet containing ethanol or isocaloric iso-maltose for 10 weeks were treated for the last 29 days with the specific mAChR4 PAM VU0467154 (5 mg/kg), which was dissolved in the liquid diet. […]
Real-time quantitative PCR. RNA was extracted from mouse tissues and cDNA was generated 511 (Duan et al., 2019). Primer sequences for mouse genes were obtained from the NIH qPrimerDepot. Gene expression was determined with Sybr Green (Bio-Rad Laboratories) using ABI StepOnePlus real-time PCR system. The qPCR value was normalized to Tbp or 18S housekeeping genes. To quantify the total bacterial load in feces, the 515 qPCR value of 16S rRNA gene for each sample was multiplied by the total amount of DNA (μg) mg^−1 of feces. Published bacterial primer sequences were used for 16S rRNA gene (Maeda et al., 2003) (Table 3). […]
Flow cytometry. Isolation: Small intestine was harvested, and the epithelial cell layer was removed. Pieces were digested in media containing 1 mg/mL collagenase (Millipore Sigma), 0.1 U/mL dispase (Worthington Biochem) and 0.1 mg/mL DNase I (Millipore Sigma) at 37° C. at 150 rpm for 30 minutes. A 40% and 80% Percoll gradient was used to collect the lymphoid fractions at the interphase. Flow cytometry: LP-immune cells were pelleted and blocked with anti-mouse CD16/32 antibody (Thermo Fisher) for 15 minutes. Cells were divided to perform 3 different panels to analyze APCs, ILC3 and Tregs.
Stimulation and staining: To stimulate IL-23 secretion by LP-DCs, cells were re-stimulated in vitro with 100 ng/ml flagellin (Invivogen) for 2.5 hours in the presence of 0.7 μl/ml BD GolgiStop™ (BD Bioscience) to accumulate cytokines and/or proteins. The murine APC panel consisted of CD45.2 (V500, clone 104, BD), CD11c (FITC, clone N418, ThermoFisher), MHC Class II (I-A/I-E) (PE, clone M5/114. 15.2, ThermoFisher), CD11b (PerCP544 Cy5.5, clone M1/70, BD), CD103 (APC-R700, clone M290, BD), CX3CR1 (BV421, clone SA011F11, BioLegend), fixable viability stain (FVS) (575V, BD), IL-10 (BV711, clone JES5-16E3, BD) and IL-23 p19 (AF647, clone N71-1183).
Immunoblot analyses. To measure expression levels of mAChR4, GCs were isolated as described above. Immunoblot analysis was performed as described 33 using anti-AChR4 1:1000 (#AMR-004; Alomone labs) and anti-β-actin 1:5000 (Sigma-Aldrich) antibody as loading control. Protein from proximal small intestine was extracted and immunoblot analysis was performed using anti-Reg3g 1:500 (ab198216, Abcam), anti-Reg3b 1:500 (ABIN1870289, Antibodies online), and anti-IL-10 1:1000 (sc-365858; Santa Cruz Biotechnology) antibodies. Stain-free imaging technology using polyacrylamide gels (BioRad) containing a proprietary trihalo compound to make proteins fluorescent, was employed to calculate total protein. Immunoblots were visualized with a charged coupling device camera in a luminescent image analyzer (Gel-Doc; Bio-Rad). Immunoblots were analyzed by densitometry, using Image Lab version 6.0.1 software (Bio-Rad).

[3] = Bubser 2014; Pancani 2015; Gould 2018; cited from earlier work; remark: listed apart in the source
rodent model = conditions: systemic administration; Walker et al., 2020; cited from earlier work
mAChR4 = molecular target: T2, mAChR4 (Homo sapiens, UniProt P08173); conditions: target not printed with the value; cited from earlier work
T2 sequence (P08173 1-479): T1 sequence (P08173 1-479)

cultured GCs = assay: IL-6 treatment of cultured goblet cells; format: cell-based
[4] = tested on: small intestinal organoids from WT mice; assay: IL-6 stimulation of small intestinal organoids (Chrm4 mRNA, mAChR4 immunoblot); format: cell-based, mouse; conditions: IL-6 20 ng/ml in the presence of ethanol for 12 hours
Protocol: Real-time quantitative PCR. RNA was extracted from mouse tissues and cDNA was generated 511 (Duan et al., 2019). Primer sequences for mouse genes were obtained from the NIH qPrimerDepot. Gene expression was determined with Sybr Green (Bio-Rad Laboratories) using ABI StepOnePlus real-time PCR system. The qPCR value was normalized to Tbp or 18S housekeeping genes. To quantify the total bacterial load in feces, the 515 qPCR value of 16S rRNA gene for each sample was multiplied by the total amount of DNA (μg) mg^−1 of feces. Published bacterial primer sequences were used for 16S rRNA gene (Maeda et al., 2003) (Table 3).
Small intestinal organoid isolation and culture. Small intestinal crypts were isolated from WT mice, cultured and stained as described 41 and treated with ethanol (10 and 50 mM) and IL-6 (20 ng/ml) (Biolegend) for 12 hours.
Immunoblot analyses. To measure expression levels of mAChR4, GCs were isolated as described above. Immunoblot analysis was performed as described 33 using anti-AChR4 1:1000 (#AMR-004; Alomone labs) and anti-β-actin 1:5000 (Sigma-Aldrich) antibody as loading control. […] Immunoblots were analyzed by densitometry, using Image Lab version 6.0.1 software (Bio-Rad).

[5] = ethanol diet 10 weeks, 5 mg/kg in the diet during the last 29 days
[6] = ethanol fed mice, anaerobic culture
[7] = ethanol fed mice, cells stimulated with flagellin 100 ng/ml 2.5 hours
[8] = ethanol fed mice, proximal small intestine

For `CCOC(=O)N1CCCC(N2CCC(c3cccnc3OC)CC2)CC1` (centres unmarked) [PT-6950], the EC50 (hM4) is given as 20 nM.

For `Cc1cc(C)c2c(N)c(C(=O)NC3CN(c4cccnc4)C3)sc2n1` [PT-3763], the EC50 (hM4) is given as 45 nM.

In the case of `Cc1nnc2sc(C(=O)NCc3ccc(S(=O)(=O)C(F)(F)F)cc3)c(N)c2c1C` [VU0467154], the oral bioavailability [1] is listed as “excellent”, the “ethanol-induced liver inflammation (hepatic Cxcl1 mRNA)” value [2, 5] is listed as “protected” and the “ethanol-induced liver injury (plasma ALT, H&E)” value [2, 5] is listed as “protected”. For the same compound, the “ethanol-induced steatosis (ORO-stained liver sections)” value [2, 5] was “protected”, the “ethanol-induced GAP closure (number of GAPs per villus)” value ([2]; ethanol diet 10 weeks, 5 mg/kg in the diet during the last 29 days, small intestine) was “reduced” and the “ethanol mediated bacterial translocation to MLN (CFU)” value [2, 6] was “prevented”. The “ethanol mediated bacterial translocation to liver (CFU)” value [2, 6] was “prevented”, the “Frequencies of CD103+ CD11b+ DC populations” value [2, 7] was “increased” and the “Frequencies of LP-APCs (CD11c+, MHCII+)” value [2, 7] was “increased”. For the same compound, the “intestinal IL-10 expression (immunoblot)” value [2, 8] was “induced”, the “intestinal Reg3b expression (immunoblot)” value [2, 8] was “induced” and the “intestinal Reg3g expression (immunoblot)” value [2, 8] was “induced”. The “gastrointestinal motility side effects” value [3] was “no gastrointestinal motility side effects” and the “ethanol seeking and consumption” value (rodent model) was “reduced”.

For `Cc1cc2c(nc1N1CCC(Oc3ccc4c(c3)COC4)CC1)CNC2=O` [MK-4710], the IC50 (mAChR4) is listed as 17 nM.

For `Cc1nnc2sc(C(=O)NC3CN(c4cccnc4)C3)c(N)c2c1C` [PT-1148], the EC50 (hM4) is given as 3 nM.

With “IL-6: cytokine (Biolegend) used at 20 ng/ml on organoids” the mAChR4 expression (cultured GCs) was “induced” and the “mAChR4 expression (Chrm4 mRNA, mAChR4 protein)” value [4] was “induced”.
